Assays:
Format in all cases: biochemical
[1] = target: T1, cloned human μ opioid receptor (Homo sapiens, UniProt P35372); experiment: Inhibition of DAMGO-stimulated [35S]GTPγS binding
T1 construct: expressed in transfected cells
Description: (§1) Measures of opioid receptor antagonism and specificity were obtained by monitoring the ability of selected test compounds to inhibit stimulation of [^35S]GTPγS binding produced by the selective agonists (D-Ala^2, MePhe^4, Gly-ol^5)enkephalin (DAMGO, mu receptor), cyclo[D-Pen^2, D-Pen^5]enkephalin (DPDPE, delta) and 5,7,8-(−)-N-methyl-N-[7-(1-pyrrolidinyl)-1-oxaspiro[4,5]dec-8-yl]benzeneacetamide (U69,593, kappa) in cloned human receptors, Table 1.

[2] = target: T2, cloned human δ opioid receptor (Homo sapiens, UniProt P41143); experiment: Inhibition of DPDPE-stimulated [35S]GTPγS binding; details: read-out: δ, DPDPE Ke
T2 construct: expressed in transfected cells
T2 sequence (P41143 whole entry): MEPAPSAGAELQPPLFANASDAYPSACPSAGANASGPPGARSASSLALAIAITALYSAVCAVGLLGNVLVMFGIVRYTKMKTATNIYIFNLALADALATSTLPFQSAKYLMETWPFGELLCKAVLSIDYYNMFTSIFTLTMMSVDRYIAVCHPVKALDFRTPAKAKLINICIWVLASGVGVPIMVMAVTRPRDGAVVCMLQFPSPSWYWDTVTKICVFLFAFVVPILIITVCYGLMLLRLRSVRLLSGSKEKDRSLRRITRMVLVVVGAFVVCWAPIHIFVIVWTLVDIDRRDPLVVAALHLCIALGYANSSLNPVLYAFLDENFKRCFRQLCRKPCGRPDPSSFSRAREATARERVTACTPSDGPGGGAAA
Description: as §1

[3] = target: T3, cloned human κ opioid receptor (Homo sapiens, UniProt P41145); experiment: Inhibition of U69,593-stimulated [35S]GTPγS binding
T3 construct: expressed in transfected cells
T3 sequence (P41145 whole entry): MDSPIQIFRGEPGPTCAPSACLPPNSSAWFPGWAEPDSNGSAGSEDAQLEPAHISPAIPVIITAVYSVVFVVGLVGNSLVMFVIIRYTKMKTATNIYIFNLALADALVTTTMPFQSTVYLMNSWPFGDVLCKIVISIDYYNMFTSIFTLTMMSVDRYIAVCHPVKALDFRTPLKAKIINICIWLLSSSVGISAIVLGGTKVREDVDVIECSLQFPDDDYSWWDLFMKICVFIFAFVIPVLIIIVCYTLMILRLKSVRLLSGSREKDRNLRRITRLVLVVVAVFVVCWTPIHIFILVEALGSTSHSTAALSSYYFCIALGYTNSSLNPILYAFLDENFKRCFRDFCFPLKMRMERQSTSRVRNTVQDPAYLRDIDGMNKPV
Description: as §1

T1 sequence (P35372 whole entry): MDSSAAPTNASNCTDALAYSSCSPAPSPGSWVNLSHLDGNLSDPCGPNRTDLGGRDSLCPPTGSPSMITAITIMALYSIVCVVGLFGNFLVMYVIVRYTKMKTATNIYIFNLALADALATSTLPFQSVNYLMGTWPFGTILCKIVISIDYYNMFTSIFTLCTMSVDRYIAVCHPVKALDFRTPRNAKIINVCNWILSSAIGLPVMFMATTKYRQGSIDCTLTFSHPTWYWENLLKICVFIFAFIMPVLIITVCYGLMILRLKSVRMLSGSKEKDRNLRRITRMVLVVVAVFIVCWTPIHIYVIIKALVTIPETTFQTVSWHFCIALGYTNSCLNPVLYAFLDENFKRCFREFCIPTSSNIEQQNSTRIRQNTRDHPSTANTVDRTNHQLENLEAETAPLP

## CC(C)[C@@H](CN1CC[C@@](C)(c2cccc(O)c2)[C@@H](C)C1)NC(=O)[C@@]1(C)Cc2ccc(O)cc2CN1 [RTI-5989-240, (3R)-7-Hydroxy-N-[(1S)-1-{[(3R,4R)-4-(3-hydroxyphenyl)-3,4-dimethylpiperidin-1-yl]methyl}-2-methylpropyl]-3-methyl-1,2,3,4-tetrahydroisoquinoline-3-carboxamide]
[1]
  Kb: 3.6 nM
[1]; inhibition of DAMGO-stimulated [35S]GTPγS binding, cloned human μ receptor
  μ, DAMGO Ke: 3.6 nM
[2]
  Kb: 840 nM
[3]
  Kb: 0.03 nM
[3]; [35S]GTPγS in vitro functional assay
  potency for the kappa opioid receptor (in words): high potency
[3]; functional assay
  selectivity for the kappa opioid receptor relative to mu and delta (in words): highly selective
[3]; inhibition of U69,593-stimulated [35S]GTPγS binding, cloned human κ receptor
  κ, U69,593 Ke: 0.03 nM
[3]; ratio of Ke values, δ over κ
  δ/κ: 28,000
[3]; ratio of Ke values, μ over κ
  μ/κ: 120

From patent publication US8048895B2, “Kappa opioid receptor ligands” (priority 2008, dated 2011)
